Experimental data reported in patent publication US20140234420A1, “Method of Treating Skin Disorders using Nanoscale Delivery Devices and Transdermal Enhancing Compositions” (priority 2008, published 2014).
Converted amounts (≈) assume the structure as drawn. Structures can show the parent of a compound that is named as a salt. Where two headings read alike, the source gives them in different places. Each block holds one compound with its values, some of them ahead of it.

Assays:
[1] = cited from earlier work
[2] = Size, polydispersity index and zeta potential determination (Malvern Zetasizer); format: physicochemical
Protocol: Nanoparticles (2 mg) and micelles (2 mg) were dispersed in 2 ml of purified water and bath sonicated for 1 min. They were then centrifuged at 10000 rpm for 5 min and diluted 50 times with distilled water. About 50 μl of the nanoemulsion was taken and dilated to 1 mL using distilled water. A liposome dispersion was diluted 100 times using purified water and probe sonicated for 1 min using 20% amplitude. The sizes, polydispersity indexes, and zeta potentials, were measured with a Malvern Zetasizer.
Nanoparticles (2 mg) were dispersed in 1 ml of purified water and probe sonicated for 1 min using 20% amplitude. Subsequently, the sonicated particles were diluted 10 times with distilled water and properties were measured using a Malvern Zetasizer. […]
Size, polydispersity index and zeta potential determination: nanoparticles (50 μl), nanoemulsions (squalene) (50 μl) and nanomicelles (2 mg) were dispersed in 2 ml of purified water separately, vortex for 1 min. Further, the size, polydispersity index and zeta potential were measured with a Malvern Zetasizer.

[3] = cited from earlier work; remark: listed apart in the source
[4] = Encapsulation (entrapment) efficiency; format: physicochemical; conditions: for % EE: drug encapsulated in zein/lecithin/squalene nanoemulsions
Protocol: Detection wavelength: 340 nm; Injection volume: 50 μl: Run time: 10 min. […] The resulting solution was centrifuged at 5000 rpm for 5 min. […] The resulting solution was centrifuged 5000 rpm for 5 min. […] In vitro release of MTX from the formulations in phosphate buffer (pH 7.4) was studied using UV-spectrophotometry. […] Benzoyl peroxide content was measured using HPLC.

[5] = test system: scleroderma patients; conditions: one course of systemic treatment (MTX 15-25 mg/weekly for 6 months); cited from earlier work
[6] = hamster ear in vitro, 24 hrs treatment
From the text: The excised hamster ear was placed on the Franz diffusion cell by exposing ventral surface towards the donor compartment.

[7] = sebum flux from citrate-phosphate buffer (pH 5.5), 37° C.
Protocol: The supporting membrane (polycarbonate membrane, pore size of 0.4 μm) of each insert was loaded with 2.5±0.2 mg of the artificial sebum. […] The study was carried out in an incubator at 125 rpm under 37° C. The complete receptor medium was replaced with fresh medium at predetermined intervals, i.e., 10, 20, 30, 40, 50, 60, 75, 90, 120 and 180 minutes after treatment. […] The cumulative quantity of drug in the receiver compartment was plotted as a function of time. The flux value for a given experiment was obtained from the linear slope (steady-state portion) of the cumulative amount of drug permeated versus time curve.

[8] = Dispersibility in aqueous solution; format: physicochemical
[9] = Stability (half-life) of retinol, free and encapsulated; format: physicochemical
From the text: Encapsulation of retinol into the zein nanoparticles and micelles improved the stability of retinol by 2 to 5 fold (see Table 5).

[10] = molecules encapsulated in nanoemulsions (Table 23)
[11] = drug encapsulated in zein/lecithin/squalene nanoemulsions
[12] = compound encapsulated in zein micelles
[13] = compound encapsulated in zein core-shell particles

SMILES: O=C(OOC(=O)c1ccccc1)c1ccccc1 [Benzoyl peroxide, Benzoyl Peroxide]
Log P [1, 10]: 3.48
Particle Size [2, 11]: 208.5 ± 6.7 nm
Solubility in ether and chloroform [3]: Soluble
Solubility in water [3]: insoluble
% EE [4]: 83.66 ± 3.81%

SMILES: COc1cc(/C=C/C(=O)CC(=O)/C=C/c2ccc(O)c(OC)c2)ccc1O [Curcumin]
PI [2, 12]: 0.25 ± 0.03
Particle Size [2, 12]: 124 ± 4 nm
Encapsulation Efficiency [4, 12]: 95 ± 4%

SMILES: COc1cccc2c1C(=O)c1c(O)c3c(c(O)c1C2=O)C[C@@](O)(C(=O)CO)C[C@@H]3O[C@H]1C[C@H](N)[C@H](O)[C@H](C)O1 [Doxorubicin-HCl]
Log P ([1]; compounds encapsulated in zein core-shell particles (Table 1)): −0.5
Particle Size [2, 13]: 171 ± 45 nm
Encapsulation Efficiency [4, 13]: 61 ± 16%

SMILES: CC1=C(/C=C/C(C)=C/C=C/C(C)=C/C(=O)O)C(C)(C)CCC1 [Retinoic acid Solution]
% Applied dose in Cartilage [6]: 2.409%
% Applied dose in Dermis [6]: 1.444%
% Applied dose in Dorsal [6]: 4.713%
% Applied dose in Sebaceous gland [6]: 0.06619%
% Applied dose in SC ([6]; 100 μg retinoic acid): 1.692%

Continued, in another order:

PI [2, 12]: 0.18 ± 0.06
Particle Size [2, 12]: 153 ± 3 nm
Encapsulation Efficiency [4, 12]: 92 ± 6%
SMILES: COc1cccc2c1C(=O)c1c(O)c3c(c(O)c1C2=O)C[C@@](O)(C(=O)CO)C[C@@H]3O[C@H]1C[C@H](N)[C@H](O)[C@H](C)O1 [Doxorubicin]

Particle Size [2, 11]: 214.3 ± 8.4 nm
% EE [4]: 87.60 ± 2.1%
SMILES: CN(Cc1cnc2nc(N)nc(N)c2n1)c1ccc(C(=O)N[C@@H](CCC(=O)O)C(=O)O)cc1 [Methotrexate]
Log P [1]: −1.8
Log P [1, 10]: −1.8
Patients who reached a remission status [5]: 51%
Solubility in water ([3]; at 19° C.): < 0.1 g/100 ml
Solubility in DMSO [3]: 100 mM (≈ 45.4 mg/mL)

PI [2, 12]: 0.21 ± 0.08
Particle Size [2, 12]: 165 ± 7 nm
Encapsulation Efficiency [4, 12]: 77 ± 11%
SMILES: CCN(CC)c1ccc2nc3c4ccccc4c(=O)cc-3oc2c1 [Nile Red]
Log P ([1]; compounds encapsulated in zein micelles (Table 2)): 5

Particle Size [2, 11]: 152 ± 3.6 nm
Flux [7]: 0.154 ± 0.003 μg/cm^2/min
SMILES: CC1=C(/C=C/C(C)=C/C=C/C(C)=C/C(=O)O)C(C)(C)CCC1 [Retinoic acid]
Log P [1, 10]: 6.83
Solubility in fat [3]: soluble
Solubility in water [3]: nearly insoluble

Dispersibility in aqueous solution / water [8]: not dispersible in water
half-life ([9]; liquid state, Dark): 20.8 ± 2.1 h
half-life ([9]; liquid state, Light): 16.1 ± 1.9 h
half-life ([9]; solid state, Dark): 63 ± 2.7 h
half-life ([9]; solid state, Light): 52.8 ± 3.5 h
PI [2, 12]: 0.27 ± 0.06
Particle Size [2, 12]: 191 ± 6 nm
Encapsulation Efficiency [4, 12]: 83 ± 3.1%
SMILES: CC1=C(/C=C/C(C)=C/C=C/C(C)=C/CO)C(C)(C)CCC1 [Retinol]
Solubility in fat [3]: soluble
Solubility in water [3]: nearly insoluble
